Experimental data: BigSolDB 2.1

OC[C@H]1O[C@@H](Oc2ccc(O)cc2)[C@H](O)[C@@H](O)[C@@H]1O
solubility (mole fraction)
Details	283.15 K	288.15 K	293.15 K	298.15 K	303.15 K	313.15 K	323.15 K
in 1,4-dioxane	0.0046	–	0.00491	–	0.00579	0.00696	0.00816
in acetone	0.000601	–	0.000781	–	0.000962	0.00126	0.00161
in acetonitrile	3.5e-05	–	7.2e-05	–	0.000145	0.000239	0.000365
in dichloromethane	4e-06	7e-06	1e-05	1.3e-05	1.6e-05	–	–
in ethanol	0.00228	–	0.00274	–	0.00351	0.0044	0.00582
in ethyl acetate	0.000155	–	0.00016	–	0.000166	0.000173	0.00018
in isopropanol	0.000532	–	0.000795	–	0.00128	0.00172	0.00259
in methanol	0.0112	–	0.0129	–	0.0151	0.0181	0.0226
in n-pentanol	0.000338	–	0.000471	–	0.000689	0.000851	0.00119
in n-propanol	0.000787	–	0.00102	–	0.00142	0.00185	0.00248
in sec-butanol	0.000355	–	0.000691	–	0.000969	0.00167	0.00226
in water	0.00524	–	0.00796	–	0.0108	0.0173	0.0283
